Patent US7708999B2, “Remedies for arthritis” (Kyowa Hakko Kirin Co., Ltd., priority 2001, dated 2010)
Each block holds one molecule with its values, some of them ahead of it.

Experiments:
[1] = system: rat adjuvant arthritis model; assay: Rat adjuvant arthritis model; assay type: in vivo; settings: for Bone destruction score / Bone destruction score (% inhibition): Table 2; for Bone destruction score: soft X-ray of calcaneus, adjuvant-untreated paw, day 21, maximum 5, mean ± standard error, oral comparators; for Bone destruction score (% inhibition) / inhibition of the increase in paw volume, adjuvant-untreated paw: vs solvent group; for inhibition of the increase in paw volume, adjuvant-untreated paw: day 21, oral, 1 mL per 100 g: sodium diclofenac 0.3 mg/mL, methotrexate 0.01 mg/mL, prednisolone 0.3 mg/mL; for inhibition of the increase (decrease) in amount of glycosaminoglycan in urine / inhibition of the increase (decrease) in amount of deoxypyridinoline in urine: urine day 20 to 21, oral comparators vs solvent group; for inhibition of the increase (decrease) in amount of glycosaminoglycan in urine: diclofenac and prednisolone not significant; for inhibition of the increase (decrease) in amount of deoxypyridinoline in urine: methotrexate and prednisolone not significant
Procedure: The rat adjuvant arthritis model was performed in the following manner according to the method of Pearson et al. (Pearson CM. et al., Arthritis Rheum., 5, 654-658, 1962) using Lewis rats (female, 8 weeks old, Japan Charles River).
Mycobacterium butyricum (manufactured by Difco) was suspended in a liquid paraffin (manufactured by Wako Pure Chemical Industries, Ltd.) to a final concentration of 6 mg/mL, and sterilized with a autoclave. The resulting solution was intradermally injected into the rat right hind pad in an amount of 100 μL for sensitization. One group consisted of 8 to 10 rats. Anti-FGF-8 neutralizing antibody KM1334 was dissolved in saline to a final concentration of 2 mg/mL. The solution was intraperitoneally administered to a KM1334 administrated group once a day at a dose of 0.5 mL per 100 g of the body weight for each rat on the sensitization day of the rat adjuvant arthritis model and on days 3, 7, 10, 14 and 17 from the sensitization. To saline administrated group, only saline was intraperitoneally administered instead of the anti-FGF-8 neutralizing antibody KM1334 solution. Further, sodium diclofenac, an antiinflammatory agent, was dissolved in a 0.5 w/v % methyl cellulose solution to a final concentration of 0.3 mg/mL, and the solution was orally administered to a sodium diclofenac administrated group as a positive control once a day at a dose of 1 mL per 100 g of the body weight on days 4, 7 to 11 and 14 to 18 from the adjuvant sensitization day. 50 mg of methotrexate® for injection (manufactured by Wyeth Japan) as a metabolic antagonist was dissolved in a 0.5 w/v % methyl cellulose solution to a final concentration of 0.01 mg/mL, and the solution was administered to a methotrexate administrated group in the same manner as in the sodium diclofenac administrated group. Prednisolone (manufactured by Sigma-Aldrich), a steroidal agent, was suspended in a 0.5 w/v % methyl cellulose solution to a final concentration of 0.3 mg/mL, and the suspension was administered to a prednisolone administrated group in the same manner as in the sodium diclofenac administrated group. Further, a 0.5 w/v % methyl cellulose solution alone was orally administered to a solvent administrated group in the same manner. An untreated group was used, and it was not subjected to sensitization with Mycobacterium butyricum and administration of an agent. The volumes of the adjuvant-treated paw and the adjuvant-untreated paw were measured as time goes by using a device for measuring edemas of rat hind paw (TK-101, manufactured by Unicom).
Using urine collected for 24 hours at day 20 and day 21 after the sensitization, the amounts of glycosaminoglycan, deoxypyridinoline, hydroxyproline and creatinine in urine were measured. The amount of glycosaminoglycan in urine was measured by the DMMB method described in Example 1. The amount of hydroxyproline in urine was measured by the method of Ikeda et al. (Ikeda Shingo et al., Tokyo Eiken Nenpo, 36 277-282, 1985). That is, 0.8 mL of hydrochloric acid for amino acid analysis (manufactured by Kanto Kagaku) was added to 0.8 mL of urine to hydrolyze at 110° C. for 15 hours. To 0.5 mL of the hydrolyzed sample was added 2 mL of a 1.2 mol/L sodium hydroxide solution for neutralization. 1 mL of isopropanol was added to 0.5 mL of the neutralized sample, and 1 ml of an oxidant solution was added. The mixture was stirred well, and allowed to stand at room temperature for 5 minutes. […]

[2] = molecular target: T1, compound 1 as a partial peptide of FGF-8 (Homo sapiens, UniProt P55075); assay: FGF-8 binding activity by BIAcore 2000, immobilized biotin-labeled compound 1; settings: antibody 16.7 μg/mL; FGF-8 peptide immobilized 35 RU
T1 construct: 17; made in house; host or cells: chemical synthesis
T1 sequence (P55075 with tags, fused parts or gaps isoform P55075-3 limits assumed): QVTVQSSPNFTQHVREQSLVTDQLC
Procedure: In order to examine the FGF-8 binding activity of the anti-FGF-8 neutralizing CDR-grafted antibodies obtained in 5. of Reference Example 3, the FGF-8 binding activity of the various anti-FGF-8 neutralizing CDR-grafted antibodies was measured and compared through BIAcore 2000 using compound 1 as a partial peptide of FGF-8 with the C terminal labeled with biotin in the following manner. The anti-FGF-8 neutralizing chimeric antibody KM3034 derived from CHO/DG44 cells obtained in 3. (1) of Reference Example 1 was used as a positive control.
HBS-EP was used as a sample diluent and a buffer during measurement. First, Sensor Chip SA (manufactured by BIACORE) was installed, and 5 μL of compound 1 labeled with biotin which had been adjusted to 0.05 μg/mL was added at a flow rate of 5 μL/min. Then, 5 μL of a 10 mmol/L glycine-hydrochloride solution (pH 1.5) was added twice continuously to wash the tip surface. The immobilization amount of the FGF-8 peptide was 35 RU.
60 μL of each of the antibody solutions was added to an FGF-8 peptide immobilized flow cell at a flow rate of 20 μL/min, and the dissociation reaction was then monitored for 3 minutes. After the dissociation reaction, 20 μL of 10 mmol/L glycine-hydrochloride solution (pH 1.5) was added twice continuously to regenerate the chip surface. This cycle was performed on the antibody solution at various concentrations (from 50 to 1.85 μg/mL) to obtain sensor grams at various concentrations. The sensor grams of the respective antibodies were converted to sensor grams of specific reactions by deduceing a sensor gram obtained using the chimeric antibody KM871 to GD3 as a negative control.

Molecule: CN(Cc1cnc2nc(N)nc(N)c2n1)c1ccc(C(=O)N[C@@H](CCC(=O)O)C(=O)O)cc1 [methotrexate]
Bone destruction score [1]: 0.9 ± 0.4 | Bone destruction score (% inhibition) [1]: 80% | inhibition of the increase in paw volume, adjuvant-untreated paw [1]: 90% | inhibition of the increase (decrease) in amount of glycosaminoglycan in urine [1]: 79% | inhibition of the increase (decrease) in amount of deoxypyridinoline in urine [1]: 34%

Molecule: C[C@]12C=CC(=O)C=C1CC[C@@H]1[C@@H]2[C@@H](O)C[C@@]2(C)[C@H]1CC[C@]2(O)C(=O)CO [prednisolone, Prednisolone]
Bone destruction score [1]: 1.8 ± 0.7 | Bone destruction score (% inhibition) [1]: 61% | inhibition of the increase in paw volume, adjuvant-untreated paw [1]: 51% | inhibition of the increase (decrease) in amount of glycosaminoglycan in urine [1]: 18% | inhibition of the increase (decrease) in amount of deoxypyridinoline in urine [1]: 38%

binding reaction [resonance signal (RU)] [2]: the lower binding reaction
B1: HV0LV2-2/CHO: CHO/DG44 cell-derived anti-FGF-8 neutralizing CDR-grafted antibody, VH HV.0, VL LV.2-2 (SEQ ID NO. 47) (antibody, V domains shown)
VH: QVQLVQSGAEVKKPGASVKVSCKASGYTFTDYYLNWVRQAPGQGLEWMGEIDPGSDSIYYNENLEGRVTITADTSTSTAYMELSSLRSEDTAVYYCARYGYSRYDVRFVYWGQGTLVTVSS
VL: DVVMTQSPLSLPVTPGEPASISCRSSQSLVHSNGRTYLEWYLQKPGQSPQLLIYKVSNRISGVPDRFSGSGSGTDFTLKISRVEAEDVGVYFCFQGSHVPYTFGQGTKVEIK

binding reaction [resonance signal (RU)] [2]: the lowest binding reaction
B2: HV0LV0/CHO: CHO/DG44 cell-derived anti-FGF-8 neutralizing CDR-grafted antibody, VH HV.0, VL LV.0 (antibody, V domains shown)
VH: QVQLVQSGAEVKKPGASVKVSCKASGYTFTDYYLNWVRQAPGQGLEWMGEIDPGSDSIYYNENLEGRVTITADTSTSTAYMELSSLRSEDTAVYYCARYGYSRYDVRFVYWGQGTLVTVSS
VL: DIVMTQSPLSLPVTPGEPASISCRSSQSLVHSNGRTYLEWYLQKPGQSPQLLIYKVSNRISGVPDRFSGSGSGTDFTLKISRVEAEDVGVYYCFQGSHVPYTFGQGTKVEIK

binding reaction [resonance signal (RU)] [2]: the highest binding reaction
B3: KM3034: anti-FGF-8 neutralizing human chimeric antibody, VH SEQ ID NO. 5, VL SEQ ID NO. 6, human γ1/κ, CHO/DG44 cell-derived (FERM BP-7836) (antibody, listed as Mus musculus, V domains shown)
VH: QVQLQQSGAEVARPGASVKLSCKASGYTFTDYYLNWVKQRSGQGLEWIGEIDPGSDSIYYNENLEGRATLTADKSSSTAYMQLNSLTSEDSAVYFCARYGYSRYDVRFVYWGQGTLVTVST
VL: DVLMTQTPLSLPVSLGDQASISCRSSQSLVHSNGRTYLEWYLQKPGQSPKVLIYKVSNRISGVPDRFSGSGSGTDFTLKISRVEAEDLGVYFCFQGSHVPYTFGGGTKLEIK

binding reaction [resonance signal (RU)] [2]: the highest binding reaction
B4: HV0LV6/CHO: CHO/DG44 cell-derived anti-FGF-8 neutralizing CDR-grafted antibody, VH HV.0 (SEQ ID NO. 18), VL LV.6 (SEQ ID NO. 21) (antibody, V domains shown)
VH: QVQLVQSGAEVKKPGASVKVSCKASGYTFTDYYLNWVRQAPGQGLEWMGEIDPGSDSIYYNENLEGRVTITADTSTSTAYMELSSLRSEDTAVYYCARYGYSRYDVRFVYWGQGTLVTVSS
VL: DVVMTQSPLSLPVSLGEPASISCRSSQSLVHSNGRTYLEWYLQKPGQSPKVLIYKVSNRISGVPDRFSGSGSGTDFTLKISRVEAEDVGVYFCFQGSHVPYTFGQGTKVEIK
modifications: HV.0, a designed amino acid sequence of VH of an anti-FGF-8 CDR-grafted neutralizing antibody; LV.6, a designed amino acid sequence of VL of an anti-FGF-8 CDR-grafted neutralizing antibody

binding reaction [resonance signal (RU)] [2]: the lower binding reaction
B5: HV0LV3-2/CHO: CHO/DG44 cell-derived anti-FGF-8 neutralizing CDR-grafted antibody, VH HV.0, VL LV.3-2 (SEQ ID NO. 45) (antibody, V domains shown)
VH: QVQLVQSGAEVKKPGASVKVSCKASGYTFTDYYLNWVRQAPGQGLEWMGEIDPGSDSIYYNENLEGRVTITADTSTSTAYMELSSLRSEDTAVYYCARYGYSRYDVRFVYWGQGTLVTVSS
VL: DIVMTQSPLSLPVSLGEPASISCRSSQSLVHSNGRTYLEWYLQKPGQSPQLLIYKVSNRISGVPDRFSGSGSGTDFTLKISRVEAEDVGVYFCFQGSHVPYTFGQGTKVEIK

binding reaction [resonance signal (RU)] [2]: the lower binding reaction
B6: HV0LV4-2/CHO: CHO/DG44 cell-derived anti-FGF-8 neutralizing CDR-grafted antibody, VH HV.0, VL LV.4-2 (SEQ ID NO. 43) (antibody, V domains shown)
VH: QVQLVQSGAEVKKPGASVKVSCKASGYTFTDYYLNWVRQAPGQGLEWMGEIDPGSDSIYYNENLEGRVTITADTSTSTAYMELSSLRSEDTAVYYCARYGYSRYDVRFVYWGQGTLVTVSS
VL: DVVMTQSPLSLPVSLGEPASISCRSSQSLVHSNGRTYLEWYLQKPGQSPQLLIYKVSNRISGVPDRFSGSGSGTDFTLKISRVEAEDVGVYFCFQGSHVPYTFGQGTKVEIK
